The record followed here is patent US7816497B2, “Compositions and methods for inhibiting drusen complement components C3a and C5a for the treatment of age-related macular degeneration” (University of Kentucky, priority 2002, dated 2010).

For assay [1], the system named is laser-induced CNV. The assay can be described thus: Laser-induced CNV in wild-type mice, intravitreous injection of complement blockers. Format: in vivo. To be noted: intravitreous injection immediately after laser injury, compared with control peptide or isotype control antibodies. The protocol:
Laser photocoagulation (532 nm, 200 mW, 100 ms, 75 μm) (OcuLight GL, Iridex) was performed (volume studies: 3/eye; protein analyses/flow cytometry: 12/eye) on both eyes of each animal to induce CNV as previously described in Sakurai, E., Taguchi, H., Anand, A., Ambati, B. K., Gragoudas, E. S., Miller, J. W., Adamis, A. P. & Ambati, J. (2003) Invest Ophthalmol Vis Sci 44, 2743-9; and Sakurai, E., Anand, A., Ambati, B. K., van Rooijen, N. & Ambati, J. (2003) Invest Ophthalmol Vis Sci 44, 3578-85. CNV volumes were measured by scanning laser confocal microscope (TCS SP, Leica) as previously reported (Id.) with 0.5% FITC-Griffonia simplicifolia Isolectin B4 (Vector Laboratories) or 0.5% FITC-rat antibody against mouse CD31 (BD Pharmingen). Volumes obtained by lectin and CD31 staining were highly correlated (r^2=0.95). […]
Because the probability of each laser lesion developing CNV is influenced by the group to which it belongs, the mouse, the eye, and the laser spot, the mean lesion volumes were compared using a linear mixed model with a split plot repeated measures design, as previously described. […] Statistical significance was determined at the 0.05 level. […]

For assay [2], the system named is VEGF. Kind of assay: VEGF levels in mouse eye tissue after intravitreous injection (VEGF ELISA). Particulars: wild-type mice, 4 hours after injection, dose-dependent. Format: in vivo. The protocol: (§1) The RPE/choroid complex was dissected from the mouse eye and sonicated in lysis buffer (20 mM imidazole HCl, 10 mM KCl, 1 mM MgCl2, 10 mM EGTA, 1% Triton X-100, 10 mM NaF, 1 mM Na molybdate, 1 mM EDTA with protease inhibitor (Sigma-Aldrich)) on ice for 45 sec. VEGF protein levels (pg/ml) in the RPE cell culture supernatant or the RPE/choroid lysate were determined by ELISA (R&D Systems) and normalized to total protein (μg/ml) (Bio-Rad).
(§2) VEGF protein data are represented as the mean±s.e.m. of at least 3 independent experiments and compared using a two-tailed Student's t-test. The null hypothesis was rejected at P<0.05.
A general note: An ELISA detects its analyte on a solid surface through an enzyme-linked reagent.

Assay [3] has as its system macrophages or neutrophils in the choroid. The assay can be described thus: Leukocyte numbers in the choroid after intravitreous injection (flow cytometry). Format: in vivo, mice. Particulars: 4 hours after intravitreous injection; data not shown. The protocol: Single cell suspensions isolated from mouse RPE/choroids via collagenase D treatment (20 U/mL; Roche Diagnostics) were incubated in Fc block (0.5 mg/mL; BD Pharmingen) for 15 min on ice, stained with Cy5-rat antibody to mouse F4/80 (1:30; Serotec), FITC-hamster antibody to mouse CD11c (1:100; Serotec), or PE-rat antibody to mouse Gr-1 (1:200; eBioscience), and subjected to FACS analysis (FACScalibur, BD Biosciences). Macrophages and neutrophils were defined as F4/80+CD11c- and Gr-1+F4/80-cells, respectively.
On the technique in general: A flow cytometer gives signals particle by particle.

The subject of assay [4] is human RPE cells. Kind of assay: VEGF secretion by human RPE cells (VEGF ELISA). Format: cell-based. Particulars: 50 ng/ml; confluent and subconfluent conditions; compared to PBS. The method, then: Human RPE cells (gift of David R. Hinton, University of Southern California) were cultured in Dulbecco's modified essential medium (Invitrogen) containing 10% fetal bovine serum, penicillin G (100 U/ml), streptomycin sulfate (0.1 mg/ml) (all from Sigma-Aldrich) at 37° C. under 10% CO2 and 90% room air. Cells were used for experiments upon attaining 80% or 100% confluence.
as §1, §2

On to `N=C(N)NCCC[C@H](NC(=O)COCC(c1ccccc1)c1ccccc1)C(=O)O` [C3aRA, N^2-[(2,2-diphenylethoxy)acetyl]-arginine], for which the “CNV (volume of laser-induced CNV)” value in assay [1] is on record as “reduced”.

Turning to “C3a: activated complement component 3 (human), applied to RPE cells or injected intravitreously”, the “VEGF levels in the RPE/choroid” value in assay [2] is “increase”. Further, the “number of macrophages or neutrophils in the choroid” value in assay [3] was “no increase”. For the same molecule, the “human RPE cell secretion of VEGF” value in assay [4] is “upregulated”.

In the case of AcF[OPdChaWR] [C5aRA], in assay [1], the “CNV (volume of laser-induced CNV)” value is “reduced”.

B1: C5a: activated complement component 5 (human), applied to RPE cells or injected intravitreously (protein, UniProt P01031 678-751, looked up)
C5a anaphylatoxin: TLQKKIEEIAAKYKHSVVKKCCYDGACVNNDETCEQRAARISLGPRCIKAFTECCVVASQLRANISHKDMQLGR
modifications: C5a anaphylatoxin
With B1, the “VEGF levels in the RPE/choroid” value in assay [2] is “increase”. The “number of macrophages or neutrophils in the choroid” value in assay [3] is reported as “no increase”. Moreover, the “human RPE cell secretion of VEGF” value in assay [4] is “upregulated”.
